# US20240041830A1, “CIRCULATING BIOMARKERS OF RESPONSE TO PD-1/PD-L1 BLOCKADE AND GSK-3 INHIBITION” (Brown University, priority 2022, published 2024)
# Key:
# HCT116 = assay: CellTiter Glo cell viability; assay type: cell-based; conditions: Homo sapiens, HCT-116, treatment up to 50 μM for seventy-two hours
# Experimental: (§1) Measurement of cell viability. Cells were seeded at a density of 3×10^3 cells per well in a 96-well plate (Greiner Bio-One, Monroe, NC, USA). Cell viability was assessed using the CellTiter Glo assay (Promega, Madison, WI, USA). Cells were mixed with 25 μL of CellTiter-Glo reagents in 100 μL of culture volume, and bioluminescence imaging was measured using the Xenogen IVIS imager (Caliper Life Sciences, Waltham, MA). The percent of cell viability was determined by normalizing the luminescence signal to control wells. Dose-response curves were generated, and the half-maximal inhibitory concentration (IC50) was calculated using Graph-Pad Prism (RRID: SCR_002798) version 9.2.0. For IC50 generation, concentrations were log-transformed, and data were then normalized to control, and a log (inhibitor) versus response (three parameters) test was used. A panel of human colorectal cell lines was chosen to provide a varied mutational background (TP53, KRAS, BRAF, TRK, APC, PIK3CA). Cells were treated with elraglusib at doses up to 50 μM for seventy-two hours to determine IC10, IC30, IC50, and IC70. Cytokine, chemokine, and growth factor levels were analyzed in the tumor cell culture supernatants after treatment at IC10, IC30, IC50, and IC70 for forty-eight hours using a Luminex 200 multiplexing instrument. Co-culture experiments were conducted with GFP+ SW480 colorectal cancer cells and either NK-92 natural killer cells or TALL-104 T cells at various effector/target ratios in a 48-well plate, in the presence or absence of elraglusib. The inventors performed cell titer glo analysis to determine IC doses after treatment up to 50 μM for seventy-two hours. See TABLE below of IC50 values for the three cell lines.
# HT29 = assay: CellTiter Glo cell viability; assay type: cell-based; conditions: Homo sapiens, HT-29, treatment up to 50 μM for seventy-two hours
# Experimental: as §1
# NK-92 = assay: microarray analysis; assay type: cell-based, human; conditions: 1 μM, 24 hours, vs untreated
# Experimental: Microarrays. A total of 0.5×10^6 tumor cells (HCT-116, HT-29, KM12C) were plated in a 6-well plate and allowed to adhere overnight before 24-hour treatment, as indicated. Then, 1×10^6 immune cells (NK92, TALL-104) were plated and treated with elraglusib as indicated for twenty-four h. RNA was isolated from cell pellets in batches of six using a RNeasy Plus Mini Kit (Cat #74134, Qiagen, Hilden, Germany). Acceptable RNA concentration and quality were verified with Nanodrop and Bioanalyzer measurements. GeneChip™ Human Transcriptome Array 2.0 assays were conducted according to manufacturer instructions in two batches using randomized samples to limit batch effects (Cat #902162, Applied Biosystems, Waltham, MA, USA). Applied Biosystems Transcriptomic Analysis Console (TAC) software (RRID: SCR_016519) was used to calculate fold changes in gene expression relative to the untreated control cells. Values were considered statistically significant for p values<0.05.
# Microarray analysis was used to obtain insights into gene expression changes in immune cell lines post-GSK-3 inhibition with elraglusib. Immune cell lines (TALL-104, NK-92) were treated with elraglusib at IC50 concentrations or DMSO as vehicle control for twenty-four hours and treated versus untreated samples were compared in triplicate using microarray analysis. FIG. 11. Results were calculated using a fold-change (FC) cutoff of >1.5, <−1.5, and a minimum p-value of <0.05. NK-92 cells had sixty-one differentially expressed genes post-treatment (FIG. 3D). the inventors observed an increase in genes that promote immune cell proliferation (TNFSF14, RAB38) and control immune cell adhesion and migration (WNK1) post-elraglusib treatment.
# TABLE 11 description. NK-92 immune cell microarray analysis. NK-92 immune cells were treated with 1 μM elraglusib for 24 hours and treated versus untreated control samples were compared in triplicate via microarray analysis (N=3).
# 93T449 liposarcoma = assay: Western blot analysis; assay type: cell-based; conditions: IC50, 48 hours
# Experimental: (§2) Western blot analysis. Cells were plated in a 6-well plate and incubated overnight before the spent media was replaced with drugged media. Drug treatment lasted for indicated durations. Protein was extracted using radioimmunoprecipitation (RIPA) assay buffer (Cat #R0278, Sigma-Aldrich, St. Louis, MO, USA) containing cOmplete™, Mini, EDTA-free Protease Inhibitor Cocktail (Cat #4693159001, Roche, Basel, Switzerland) from sub-confluent cells. Denaturing sample buffer was added, samples were boiled at 95° C. for ten minutes, and an equal amount of protein lysate was electrophoresed through NuPAGE™ 4 to 12%, bis-Tris, 1.5 mm, Mini Protein Gels (Invitrogen, Waltham, MA, USA) then transferred to PVDF membranes. The PVDF membrane was blocked with 5% non-fat milk (Sigma-Aldrich, St. Louis, MO, USA) in 1× TTBS. Primary antibodies were incubated with the transferred PVDF membrane in blocking buffer at 4° C. overnight. Secondary antibodies included Goat anti-Rabbit IgG (H+L) Secondary Antibody, HRP (Cat #31460, Invitrogen, Waltham, MA, USA), and Goat anti-Mouse IgG (H+L) Secondary Antibody, HRP (Cat #31430, Invitrogen, Waltham, MA, USA). The signal was detected using Pierce™ ECL Western Blotting Substrate (Cat #32106, Thermo Scientific, Waltham, MA, USA) and a Syngene Imaging System (RRID: SCR_015770).
# (§3) Saos-2 osteosarcoma and 93T449 liposarcoma cell lines were pretreated at IC50 with elraglusib. The cells were harvested for Western blot analysis after 48 hours of treatment. Both cancer cell lines as well as TALL-104 T-cells and NK-92 NK cells were treated with 0.5 μM elraglusib for twenty-four hours and harvested for Luminex cytokine profiling.
# Saos-2 osteosarcoma = assay: Western blot analysis; assay type: cell-based; conditions: IC50, 48 hours
# Experimental: as §2, §3
# [1] = system: GFP+ SW480 colorectal cancer cells; assay: immune cell-killing co-culture assay (Example 1); assay type: cell-based, human
# Experimental: A panel of human colorectal cell lines was chosen to provide a varied mutational background (TP53, KRAS, BRAF, TRK, APC, PIK3CA). Cells were treated with elraglusib at doses up to 50 μM for seventy-two hours to determine IC10, IC30, IC50, and IC70. Cytokine, chemokine, and growth factor levels were analyzed in the tumor cell culture supernatants after treatment at IC10, IC30, IC50, and IC70 for forty-eight hours using a Luminex 200 multiplexing instrument. Co-culture experiments were conducted with GFP+ SW480 colorectal cancer cells and either NK-92 natural killer cells or TALL-104 T cells at various effector/target ratios in a 48-well plate, in the presence or absence of elraglusib.
# [2] = vs controls without drug treatment
compound,measurement,setting,value
Cn1cc(C2=C(c3coc4ccc(F)cc34)C(=O)NC2=O)c2cc3c(cc21)OCO3 [elraglusib],IC50,HCT116,370 nM
same,IC50,HT29,410 nM
same,ITGB8 Fold Change,NK-92,−1.53
same,MIR186 Fold Change,NK-92,−1.52
same,NAP1L1 Fold Change,NK-92,−1.51
same,RAB38 Fold Change,NK-92,1.65
same,RNY5 Fold Change,NK-92,3.32
same,S100A12 Fold Change,NK-92,−1.78
same,TNFSF14 Fold Change,NK-92,1.5
same,WNK1 Fold Change,NK-92,1.5
same,cPARP,93T449 liposarcoma,increase
same,PD-L1 expression,93T449 liposarcoma; cell line not given,increase
same,cPARP,Saos-2 osteosarcoma,increase
same,PD-L1 expression,Saos-2 osteosarcoma; cell line not given,increase
same,cell-killing after pre-treatment of the target tumor cells,"[1]; pre-treatment of tumor cells, but not effector immune cells",bolstered cell-killing
same,T cell (TALL-104) killing of colorectal cancer cells,[1]; [2],significant increase
same,natural killer (NK-92) cell killing of colorectal cancer cells,[1]; [2],significant increase
